From EPA's ToxValDB 9.5 (doi:10.2903/j.efsa.2008.185r)
Values joined by “and” are separate entries in the source; they are usually repeats but may differ in a detail not shown here. Identical values can stand only once.

What was measured:
Anas platyrhynchos = conditions: short-term; oral; feed; mortality
Apis mellifera = conditions: acute; duration: 48 hours; oral; unspecified; mortality
Colinus virginianus = conditions: mortality
Canidae = conditions: oral, Dog Other, clinical chemistry
Daphnia magna = conditions: chronic/long-term; duration: 21 days; reproduction
Tagia sp. = conditions: acute; duration: 14 days; mortality
Rattus norvegicus = conditions: for LD50: acute, oral
Coturnix coturnix = conditions: acute, oral, mortality
Mus musculus = conditions: acute, oral, mortality
Aphidius rhopalosiphi = assay: LR50; higher = less toxic; conditions: not reported; mortality
Typhlodromus pyri = assay: LR50; higher = less toxic; conditions: not reported; mortality

## Cc1nnc(-c2ccccc2)c(=O)n1N [Metamitron]
Anas platyrhynchos
  LD50: > 1590 mg/kg-day
Apis mellifera
  LD50: > 97.2 µg/piece
Colinus virginianus; acute, oral, diet
  LD50: > 904 mg/kg-day
Colinus virginianus; reproduction developmental
  NOAEL: 81.5 mg/kg-day
Canidae; chronic, duration: 2 years, diet
  NOAEL: 3 mg/kg-day
Canidae; subchronic, duration: 90 days
  NOAEL: 3.6 mg/kg-day
Daphnia magna
  NOEC: 10 mg/L
Tagia sp.
  LC50: 914 mg/kg
Rattus norvegicus; F, mortality
  LD50: 1480 mg/kg-day
Rattus norvegicus; M, mortality
  LD50: 1180 mg/kg-day
Rattus norvegicus; mortality
  LD50: < 2000 mg/kg-day and 4320 mg/kg-day
Rattus norvegicus; chronic, F, mortality
  NOAEL: 53.8 mg/kg-day
Rattus norvegicus; chronic, M, mortality
  NOAEL: 36.4 mg/kg-day
Rattus norvegicus; reproduction developmental, body weight
  NOAEL: 10 mg/kg-day
Oncorhynchus mykiss; acute, duration: 96 hours, mortality
  LC50: > 190 µg/mL
Oncorhynchus mykiss; chronic/long-term, duration: 21 days, growth
  NOEC: 7 mg/L
Coturnix coturnix; F
  LD50: 1300 mg/kg-day
Coturnix coturnix; M
  LD50: 1360 mg/kg-day
Mus musculus; M
  LD50: 691 mg/kg-day
Mus musculus
  LD50: 644 mg/kg-day
Aphidius rhopalosiphi
  LR50: 14400 g/ha
Typhlodromus pyri
  LR50: 14400 g/ha
